Reference: patent US8138158B2, “Compositions and methods for therapy for diseases characterized by defective chloride transport” (Children's Hospital & Research Center at Oakland, priority 1997, dated 2012)
Blank lines part the entries; values can stand above or below the molecule they belong to.

How the values were obtained:
[1] = test system: CF15 monolayers homozygous for ΔF508 CFTR; assay: Short-circuit current across CF15 monolayers homozygous for ΔF508 CFTR; assay type: cell-based, human; details: D-isoascorbate 300 μm
Protocol: (§1) Human airway cell culture. The human submucosal serous gland-like cell line Calu-3, the CF nasal epithelial cell line homozygous for ΔF508 CFTR (CF15) and human tracheal primary cultures (hTE) were cultured as described (Jefferson, D. M., Valentich, J. D., Marini, F. C., Grubman, S. A., Iannuzzi, M. C., Dorkin, H. L., Li, M., Klinger, K. W. & Welsh, M. J. (1990) Am. J. Physiol. 259, L496-L505. Sachs, L. A., Finkbeiner, W. E. & Widdicombe, J. H. (2003) In Vitro Cell Dev. Biol. Anim. 39, 56-62.). Wildtype CFTR-corrected CF15 cells were generated via adenovirus-mediated gene transfer. Growth media were nominally free of ascorbic acid (<10 μm, University Pathology Inc., Salt Lake City, Utah). For transepithelial measurements cells were grown on permeable filter inserts and used after 3 to 10 days.
(§2) Short-circuit current measurement. Calu-3 or CF15 cells were grown as monolayers, mounted in Ussing chambers and short-circuit current (ISC) was recorded as described (Illek, B. & Fischer, H. (1998) Am. J. Physiol. 275, L902-L910). At 20-50 second intervals, transepithelial voltage was clamped from zero to 2 mV and the transepithelial resistance (Rte) was calculated. A serosa-to-mucosa-directed Cl gradient was applied. Serosal Ussing chamber solution contained (in mM): 120 NaCl, 20 NaHCO3, 5 KHCO3, 1.2 NaH2PO4, 5.6 glucose, 2.5 CaCl2, 1.2 MgCl2. In mucosal Ussing chamber solutions, all Cl salts were exchanged for gluconate salts.
The CF15 cell line was used to determine whether ascorbate-stimulated Cl currents were solely mediated by the CFTR Cl conductance. The CF15 cell line is characterized by the absence of functional CFTR in the apical plasma membrane but the presence of other non-CFTR Cl conductances (Jefferson, D. M., Valentich, J. D., Marini, F. C., Grubman, S. A., Iannuzzi, M. C., Dorkin, H. L., Li, M., Klinger, K. W. & Welsh, M. J. (1990) Am. J. Physiol. 259, L496-L505). A concentration of L-ascorbic acid that lay within the upper plateau of the dose response curve (500 μm) was applied and ascorbate-stimulated Cl currents in CF15 vs. wildtype CFTR-corrected CF15 monolayers was compared (FIG. 23A). […] The defective response to L-ascorbic acid was reversed in wildtype CFTR-corrected CF15 epithelia such that ISC responded promptly to L-ascorbic acid (ΔISC=7.5±0.5 μA/cm^2, n=6). The ascorbate-stimulated current was further activated by the cAMP agonist forskolin and total stimulated ISC averaged 12.1±1.1 μA/cm^2 (FIG. 4B). The ascorbate-stimulated Cl current reached 60±15% of the forskolin-stimulated current in CFTR-corrected CF15 monolayers, which was close to the corresponding findings in Calu-3 monolayers (68%, see FIG. 21A). […]
(§3) In this example, chloride currents stimulated by L-ascorbate or D-ascorbate were measured in CF15 versus. wildtype CFTR-corrected CF15 monolayers. A concentration of L-ascorbate (1 mM) or D-isoascorbate (300 μm) that lay within the upper plateau of the dose-response curve was applied to cells and the resulting chloride currents stimulated in CF15 versus wildtype CFTR-corrected CF15 monolayers were measured (FIG. 25 A-H). […]
The functional activation of ΔF508 CFTR was determined after correction of the underlying trafficking defect of ΔF508 CFTR using S-Nitrosoglutathione (Zaman, et al., Biochem Biophys Res Commun 284: 65-70, 2001; Snyder, et al., American Journal of Respiratory and Critical Care Medicine 165: 922-6, 2002; Andersson, et al. Biochemical and Biophysical Research Communication 297(3): 552-557, 2002.). […]

ΔF508 CFTR = target: T1, ΔF508 CFTR (Mus musculus, UniProt P26361, DEL508-508); assay: Rectal potential difference (RPD) in mice homozygous for ΔF508 CFTR; assay type: in vivo
T1 construct: from tissue; host or cells: rectal mucosa of living ΔF508 CF mice (C57Bl6/J), TMAO-treated or water-injected
T1 sequence (P26361 with tags, fused parts or gaps DEL508-508): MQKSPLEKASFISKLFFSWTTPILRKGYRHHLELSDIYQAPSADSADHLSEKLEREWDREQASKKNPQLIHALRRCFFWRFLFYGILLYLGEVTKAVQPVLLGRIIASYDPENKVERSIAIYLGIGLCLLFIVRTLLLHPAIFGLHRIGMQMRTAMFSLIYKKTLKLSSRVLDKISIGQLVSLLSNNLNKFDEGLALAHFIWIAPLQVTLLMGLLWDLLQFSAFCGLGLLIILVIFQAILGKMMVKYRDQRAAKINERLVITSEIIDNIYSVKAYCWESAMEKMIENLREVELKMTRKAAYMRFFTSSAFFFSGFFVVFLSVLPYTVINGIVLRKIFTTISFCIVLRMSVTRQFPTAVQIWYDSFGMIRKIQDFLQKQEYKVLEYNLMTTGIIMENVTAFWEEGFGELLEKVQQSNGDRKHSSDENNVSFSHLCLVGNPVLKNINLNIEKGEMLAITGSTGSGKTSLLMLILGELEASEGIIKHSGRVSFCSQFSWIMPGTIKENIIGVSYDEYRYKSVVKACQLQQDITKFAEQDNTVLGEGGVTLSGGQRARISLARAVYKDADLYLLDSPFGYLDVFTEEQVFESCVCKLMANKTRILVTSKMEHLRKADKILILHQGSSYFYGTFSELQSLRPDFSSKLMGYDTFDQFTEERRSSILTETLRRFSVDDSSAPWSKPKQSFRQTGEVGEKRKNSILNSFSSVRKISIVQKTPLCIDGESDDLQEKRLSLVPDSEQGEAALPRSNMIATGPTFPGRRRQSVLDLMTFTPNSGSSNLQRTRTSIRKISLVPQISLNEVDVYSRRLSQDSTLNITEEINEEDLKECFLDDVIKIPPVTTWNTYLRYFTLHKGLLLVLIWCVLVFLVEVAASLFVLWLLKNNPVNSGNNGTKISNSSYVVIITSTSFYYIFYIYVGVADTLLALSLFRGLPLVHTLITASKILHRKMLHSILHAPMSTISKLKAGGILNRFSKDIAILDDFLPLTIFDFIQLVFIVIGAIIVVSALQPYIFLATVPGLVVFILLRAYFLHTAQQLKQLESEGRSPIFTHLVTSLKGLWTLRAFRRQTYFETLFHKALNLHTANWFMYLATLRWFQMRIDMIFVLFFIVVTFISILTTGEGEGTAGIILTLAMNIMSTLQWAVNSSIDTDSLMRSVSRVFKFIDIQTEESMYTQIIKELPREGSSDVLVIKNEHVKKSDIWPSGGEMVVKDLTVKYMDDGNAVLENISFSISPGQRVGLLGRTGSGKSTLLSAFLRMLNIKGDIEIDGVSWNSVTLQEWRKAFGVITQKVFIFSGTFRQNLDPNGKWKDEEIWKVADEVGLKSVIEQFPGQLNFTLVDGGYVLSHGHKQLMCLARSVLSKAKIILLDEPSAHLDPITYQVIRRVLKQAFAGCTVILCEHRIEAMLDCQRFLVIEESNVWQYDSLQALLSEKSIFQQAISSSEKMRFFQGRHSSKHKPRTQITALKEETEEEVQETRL
Source text: CF mice and rectal potential difference (RPD) measurements. Gene-targeted mice homozygous for the ΔF508 mutation (C57Bl6/J) received Golytely® (Braintree Laboratories, Inc.), a diarrhetic supplement, in the drinking water to increase their lifespan (Clarke, L. L., Gawenis, L. R., Franklin, C. L. & Harline, M. C. (1996) Lab. Anim. Sci. 46, 612-8). To correct the maturation defect of ΔF508 CFTR we used the chemical chaperone trimethylamine oxide (TMAO) (Brown, C. R., Hong-Brown, L. Q., Biwersi, J., Verkman, A. S. & Welch, W. J. (1996) Cell Stress Chaperones 1, 117-25). CF mice were injected with 4 mg/g TMAO from a 4 M stock solution every 8 hours for 24 hours, which is a regimen to partially correct the ΔF508 defect in CF mice (Fischer, H., Barbry, P., Illek, B., Sartori, C., Fukuda, N. & Matthay, M. A. (2001) Am. J. Physiol. 281, L52-L57). Controls were water-injected. The RPD assay was performed on mice that were anesthetized with 0.1 mg/g body weight ketamine and 0.01 mg/g body weight azepromazine. RPD was sensed with a 1 M NaCl agar bridge inserted ˜1 cm into the rectum vs. a subcutaneous needle filled with 1 M NaCl. Measurements were performed in Cl free solution containing 100 μm amiloride and 5 mM Ba(OH)2 to isolate the Cl-selective RPD.
In this Example, it was determined whether L-ascorbic acid affected the functional activation of ΔF508 CFTR in a CF-affected organism in vivo. Using gene-targeted mice homozygous for the ΔF508 mutation it was shown previously that the osmolyte trimethylamine oxide (TMAO) effectively supported ΔF508 CFTR trafficking in vivo (Fischer, H., Barbry, P., Illek, B., Sartori, C., Fukuda, N. & Matthay, M. A. (2001) Am. J. Physiol. 281, L52-L57). Accordingly, the effect of L-ascorbic acid was tested in homozygous ΔF508 CF mice treated with TMAO by using the RPD assay as a functional end point measure for mutant ΔF508-CFTR function. FIG. 24A illustrates that TMAO-treated CF mice manifested a detectable response to a maximal dose of L-ascorbic acid (1 mM) or its epimer D-isoascorbic acid (300 μM) and RPD hyperpolarized on average by −3.2±0.8 mV (n=4) and −3.6±1.8 mV (n=3), respectively (FIG. 24B).

[2] = test system: wildtype CFTR-corrected CF15 monolayers; assay: Short-circuit current across wildtype CFTR-corrected CF15 monolayers; assay type: cell-based, human; details: D-isoascorbate 300 μm; amiloride; n=2
Protocol: as §1, §2
The CF15 cell line was used to determine whether ascorbate-stimulated Cl currents were solely mediated by the CFTR Cl conductance. The CF15 cell line is characterized by the absence of functional CFTR in the apical plasma membrane but the presence of other non-CFTR Cl conductances (Jefferson, D. M., Valentich, J. D., Marini, F. C., Grubman, S. A., Iannuzzi, M. C., Dorkin, H. L., Li, M., Klinger, K. W. & Welsh, M. J. (1990) Am. J. Physiol. 259, L496-L505). A concentration of L-ascorbic acid that lay within the upper plateau of the dose response curve (500 μm) was applied and ascorbate-stimulated Cl currents in CF15 vs. wildtype CFTR-corrected CF15 monolayers was compared (FIG. 23A). […] The defective response to L-ascorbic acid was reversed in wildtype CFTR-corrected CF15 epithelia such that ISC responded promptly to L-ascorbic acid (ΔISC=7.5±0.5 μA/cm^2, n=6). The ascorbate-stimulated current was further activated by the cAMP agonist forskolin and total stimulated ISC averaged 12.1±1.1 μA/cm^2 (FIG. 4B). The ascorbate-stimulated Cl current reached 60±15% of the forskolin-stimulated current in CFTR-corrected CF15 monolayers, which was close to the corresponding findings in Calu-3 monolayers (68%, see FIG. 21A). The absence of ascorbate-stimulated Cl currents in CF15 monolayers supports the notion that non-CFTR Cl conductances were not activated by L-ascorbic acid.
as §3, with “A-H). All experiments were performed in the presence of the sodium channel blocker amiloride.” for “A-H).”

Calu-3 monolayers = assay: Transepithelial chloride currents in forskolin-prestimulated Calu-3 monolayers; assay type: cell-based, human; details: prestimulated with 10 μM forskolin; compound at 100 μM
Protocol: FIGS. 13A-13C illustrate the effect of additional representative flavonoids and isoflavonoids on chloride current in epithelial cells. FIG. 13A is a graph showing the stimulation of transepithelial chloride currents by reservatrol (100 μM), flavanone (100 μM), flavone (200 μM), apigenin (20 μM), apigenin 7-O-neohesperidoside (30 μM), kaempferol (20 μM), fisetin (100 μM), quercetin (30 μM), rutin (30 μM), genistein (30 μM), daidzein (50 μM), biochanin A (100 μM) and prunetin (100 μM) in Calu-3 monolayers. Experiments were performed in the presence of 10 μM forskolin. Stimulated currents are plotted relative to forskolin stimulated increase (forskolin stimulated currents are 100%). FIG. 13B is a recording showing the effect of 7,4′-dihydroxyflavone on chloride current in unstimulated tissue. […] Increasing concentrations of 7,4′-dihydroxyflavone (as indicated in μM) were added to mucosal side and dose-dependently stimulated chloride currents. Currents were recorded with a serosal-to-mucosal chloride gradient at 0 mV and pulses were obtained at 2 mV. FIG. 13C is a recording illustrating the effect of trimethoxy-apigenin. […] Increasing concentrations of trimethoxy-apigenin (as indicated in μM) were added to mucosal side and dose-dependently stimulated chloride currents. Experiment was performed on unstimulated tissue. Currents were recorded with a serosal-to-mucosal chloride gradient at 0 mV and pulses were obtained at 2 mV.
Airway epithelial cells were prestimulated with 10 μM forskolin. The percent increase in chloride current was then determined following treatment with a series of polyphenolic compounds. FIG. 13A summarizes the stimulatory effect of these compounds.

Calu-3 cell monolayer = assay: Short-circuit current across α-toxin-permeabilized Calu-3 cell monolayer in Ussing chamber; assay type: cell-based, human; details: tissue first stimulated with forskolin 10 μM; biochanin A 100 and 300 μM
Source text: Within one in vitro assay, the level of chloride transport may be evaluated using mammalian pulmonary cell lines, such as Calu-3 cells, or primary human, rat, mouse and bovine tracheal and alveolar cell cultures, as well as intestinal epithelial cell lines, such as T84, HT-29, Caco-2 and cell lines of other epithelial origin such as MDCK and FRT. In general, such assays employ cell monolayers, which may be prepared by standard cell culture techniques. Within such systems, CFTR-mediated chloride current may be monitored in an Ussing chamber using intact epithelia. Anion efflux assays may be used to detect CFTR-mediated transport (e.g., iodide efflux, see for example RNA. 2003 October; 9(10): 1290-7). Additionally, chloride transport (or generally airway surface liquid composition), can be evaluated using any number of indicators such as described in J Gen Physiol. 2003 November; 122(5): 511-9. Alternatively, chloride transport may be evaluated using epithelial tissue in which the basolateral membrane is permeabilized with anion-selective ionophores such as nystatin, amphotericin B or Staphylococcus aureus α-toxin, and in which a chloride gradient is imposed across the apical membrane (see Illek et al., Am. J. Physiol. 270:C265-75, 1996). In either system, chloride transport is evaluated in the presence and absence of a test compound (i.e., a flavone or isoflavone, or ascorbate or derivative thereof), and those compounds that stimulate chloride transport as described above may be used within the methods provided herein.
A Calu-3 cell monolayer was prepared in an Ussing chamber as described by Illek et al., Am. J. Physiol. 270:C265-275, 1996. […]
To evaluate the effect of biochanin A, a Calu-3 cell monolayer was prepared and permeabilized as described above. […] The effect of biochanin A (Bio, 100 and 300 μM) on short-circuit current (ISC) across the Calu-3 monolayer was evaluated in an Ussing chamber.

RPD hyperpolarized on average by (ΔF508 CFTR; CF mice treated with 4 mg/g TMAO for 24 hours, D-isoascorbic acid 300 μM, n=3): −3.6±1.8 mV
ΔRPD (ΔF508 CFTR; water-injected control CF mice, L-ascorbic acid or D-isoascorbic acid, n=9): −1.1±0.4 mV
SMILES: O=C1O[C@H]([C@H](O)CO)C(O)=C1O [D-isoascorbic acid]
transepithelial chloride currents increased on average by ([1]; CF15 treated with 1 mM SNOG for 5-24 hours, n=8): 3.1±0.5
ΔIsc ([1]; untreated CF epithelia, amiloride, n=7): 0.7±1.0 μA/cm^2
ΔIsc [2]: 6.6±1.7 μA/cm^2

SMILES: C[N+](C)(C)[O-] [TMAO, trimethylamine oxide, reference compound]
increase of ascorbate- and isoascorbate-stimulated RPD compared to untreated CF mice (ΔF508 CFTR; TMAO 4 mg/g every 8 hours for 24 hours): approximately 3 fold

SMILES: COc1ccc(-c2coc3cc(O)cc(O)c3c2=O)cc1 [biochanin A, 4′-methoxy-5,7-dihydroxyisoflavone]
chloride currents further stimulated to (forskolin stimulated currents are 100%) (Calu-3 monolayers): 139%
short-circuit current (ISC), chloride secretion (Calu-3 cell monolayer): further stimulated chloride secretion
